Key:
[1] = system: anti-Tn IgM; experiment: Inhibition of anti-Tn antibody binding to Tn glycopeptide array; set-up: species or system human; details: glycomimetic 20 mM, 30 min at RT, anti-Tn antibodies C3
Experimental: The Tn glycopeptide microarray was prepared as previously described^77. Briefly, the glycopeptides printed on the microarray is as listed (FIG. 2). Purified anti-Tn antibodies (diluted to […] for IgM, and […] for IgG and IgA detection) in TSM binding buffer (20 mM Tris-HCl, pH 7.4, 150 mM NaCl, 2 mM CaCl2), 2 mM MgCl2, with 1% BSA and 0.05% Tween-20) were added to the respective array slides for 1 h at RT. Alexa Fluor #488-labeled goat anti-human IgM or goat anti-human IgG, or FITC-labeled goat anti-human IgA antibody at 1:400 dilution in TSM binding buffer was used for detection of IgM, IgG, and IgA within purified anti-Tn antibodies. Slides were analyzed on a Genepix^# 4300A microarray scanner (Molecular Devices). Images were analyzed with quantitation software (GenePix® Pro Microarray Analysis Software Ver. 7, Molecular Devices). For inhibition assay, a purified Tn(+)IgA1 produced from CosmcKO Dakiki cells was utilized (See Generation of CosmcKO Dakiki cells using CRISPR-Cas9 system for generating the antibody) to inhibit anti-Tn antibodies binding to microarray and Tn(−)IgA1 produced from Dakiki cells as a […]. Purified anti-Tn antibodies (Cl, 10 mg/ml) in TSM binding buffer was preincubated with 1 mg of purified Tn(+)IgA1, or Tn(−)IgA1 for 30 min at RT. […] Heat map and correlation map of binding preferences were analyzed using GLAD (Glycan Array Dashboard).

[2] = system: anti-Tn CICs; experiment: ELISA based glycomimetic inhibition assay (anti-Tn CICs binding to IgA1 glycopeptide); set-up: species or system human; details: ID18 with ID19 as baseline, serial dilution (1/3) starting at 10 mM
Experimental: IgA1 glycopeptides (ID18, or ID19 as listed in FIG. 2, 0.01 mg/well) were immobilized using immobilization buffer (NaHCO3/Na2CO3, pH 9.6) in a 96-well plate (Thermo Fisher Scientific, PolySorp) overnight at 4° C. The plate was washed 3× with TSM containing 0.05% tween-20 (TSMT) and added 5% (w/v) BSA in TSMT for 1 h at RT. The plate was incubated with 1 mg/ml of purified anti-Tn CICs from IgAN serum (P3, and pooled with P1-P10; Pmix) or healthy donors (C3, and pooled C1-C10; Cmix) in TSMT containing 0.5% BSA for 1 h at RT. The plate was washed 3× with TSMT and incubated for 1 h with HRP-conjugated goat anti-human IgM at 1:1,000 dilution in TSMT containing 0.5% BSA at RT. The plate was washed 3× with TSMT and developed using TMB substrate solution (Cat #ab171523, Abcam) for 30 min, and the reaction was stopped with 1N HCl. Absorbance (450 nm) was read on an ImageXpress #Pico (Molecular Devices). The half-maximal inhibitory concentration (IC50) was calculated with GraphPad Prism 6.0 (GraphPad Software, Inc.) after subtraction from ID19 as a baseline. For inhibition assay, purified anti-Tn CICs were preincubated with a serial dilution (1/3) of α-methylGalNAc or DiαGalNAc (starting at 10 mM) for 30 min at RT.

[3] = system: primary human renal mesangial cells; experiment: Inhibition of anti-Tn CICs-stimulated mesangial cell proliferation (Ki-67); type: cell-based; details: anti-Tn CICs purified from IgAN patients pretreated with 100 mM compound, 30 min at RT
Experimental: […] of serum was mixed with […] of Tn(+)matrix beads or mock beads overnight at 4° C. (10 rpm). Supernatant was collected after pelleting the beads at 500×g for 30 sec at 4° C. After two rounds of such sequential anti-Tn CICs immunodepletion (serum-ID) and its control (serum-Mock), collected serum was filtered by syringe filter unit (Cat #SLHP033RS, Millipore Sigma) before use. Cells were cultured at ~90% confluency in 96-well plate, and starved in Mesangial cell media (Cat #4201) with 0.5% FBS (Cat #0010) and 0.05× mesangial cell growth supplement (MsCGS, Cat #4252) from ScienCell for 24 h at 37° C. prior to stimulation. Cells were stimulated with 5% serum-Mock, 5% serum-ID with or without exogenous anti-Tn CICs (50 ng/[…]/well, total) for 24 h at 37° C. incubator. Cells were fixed with 4% PFA with 0.05% Triton-X-100 in PBS for 20 min at 4° C. Fixed cells were blocked with 5% (vol/vol) goat serum in PBS for 1 h at 4° C., and incubated with anti-Ki-67 antibody (SP6, rabbit IgG, Cat #CRM325B, Biocare Medical, diluted to 1:50) in PBS for 1 h at 4° C. Cells were washed 3× with chilled PBS, and incubated with Alexa Fluor #488-goat anti-rabbit IgG (Cat #A27034, Thermo Fisher Scientific) at 1:400 in PBS for 1 h at 4° C. in the dark. Cells were washed 3× with chilled PBS, and stained with DAPI (diluted to 0.1 mM) in PBS for 10 min at RT, and analyzed using a microscope (AMG EVOS FL digital inverted microscope, Fisher Scientific, ×400 magnification). For inhibition assay, anti-Tn CICs was preincubated with 100 mM α-methylGalNAc, or α-methylGlcNAc in PBS for 30 min at RT. Serum from three healthy controls (C3, C6, and pooled C1-C10; Cmix) and three IgAN (P5, P10, and pooled P1-P10; Pmix) were used in this assay. […] of serum with IgAN (P1-P20) or healthy control (C1-C20) was analyzed on SDS-PAGE gel, and stained with Coomassie.

| SMILES | inhibition of anti-Tn antibody (IgM) binding to Tn glycopeptide array [1] | inhibition of anti-Tn CICs binding to IgA1 glycopeptide [2] | inhibition of anti-Tn CICs binding to IgA1 glycopeptide ([2]; listed as Di αGalNAc) | inhibition of proliferative activity of anti-Tn CICs from IgAN patients toward mesangial cells [3] |
| --- | --- | --- | --- | --- |
| CC(=O)N[C@H]1[C@@H](OCCSCCO[C@H]2O[C@H](CO)[C@H](O)[C@H](O)[C@H]2NC(C)=O)O[C@H](CO)[C@H](O)[C@@H]1O [DiαGalNAc, α-D-2-Ethylthio 2-acetamido-galactopyranosyl α-D-2-Ethylthio 2-acetamido-galactopyranoside] | higher inhibition compared to α-methylGalNAc | A higher inhibition of anti-Tn CICs binding | specifically inhibits the binding of anti-Tn CICs to IgA1 glycopeptide | – |
| CO[C@H]1O[C@H](CO)[C@@H](O)[C@H](O)[C@H]1NC(C)=O [α-methylGlcNAc, reference compound] | – | – | – | did not inhibit the mesangial cell proliferation |

— patent publication US20260328779A1, “METHODS AND COMPOSITIONS FOR THE DIAGNOSIS AND TREATMENT OF IGA NEPHROPATHY” (Beth Israel Deaconess Medical Center, Inc., priority 2022, published 2026)
